{
  "source": "patent US20210094922A1",
  "about": "“Dyes for Analysis of Soluble Protein Aggregates or Misfolded Protein Oligomers” (The Penn State Research Foundation, priority 2018, published 2021)",
  "type_in_all_cases": "cell-based, human",
  "key": {"SOD1(V31A)-Halo [1]": {"biological_target": "SOD1(V31A)-Halo (Rhodococcus rhodochrous, UniProt P0A3G2, A155T/A167V/A172T/A224E/C128F/C176G/D78G/E160K/E257K/H272N/K175M/K195N/L47V/L88M/N227D/P291S/S58T/T264A/Y273L/Y87F)", "sequence (P0A3G2 other isoform, or with tags, fused parts or gaps with the stated changes)": "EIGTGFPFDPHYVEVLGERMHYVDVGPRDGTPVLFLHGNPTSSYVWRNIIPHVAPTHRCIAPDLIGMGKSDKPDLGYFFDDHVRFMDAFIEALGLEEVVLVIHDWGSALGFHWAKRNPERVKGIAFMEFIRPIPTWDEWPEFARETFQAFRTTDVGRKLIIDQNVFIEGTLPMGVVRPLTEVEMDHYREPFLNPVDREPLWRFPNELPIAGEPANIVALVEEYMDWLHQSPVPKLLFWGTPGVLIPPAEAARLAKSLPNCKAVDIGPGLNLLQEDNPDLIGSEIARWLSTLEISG", "assay": "AggTag imaging of NaAsO2-induced SOD1(V31A)-Halo aggregation in HEK293T cells", "parameters": "expressed in transfected cells; host or cells: HEK293T", "description": "(§1) During protein expression, medium is supplemented with 1 μM of coumarin ligand and 1 μM of 4 to enable a simultaneous dual-probe labeling to Halo-Tag. Note: Halo-Tag locates in both cytoplasm and nucleus. Blue: fluorescence from the Halo-Tag⋅coumarin conjugate. Red: fluorescence from the Halo-Tag-4 conjugate. Scale bar: 10 μm.\n(§2) Confocal microscope imaging. The HEK293T cells were seeded at 25% confluency 24 h prior to transfection in poly-D-lysine coated 35 mm glass bottom dishes (MatTek Corporation). Cells were grown in DMEM media supplemented with 10% FBS and Penicillin-Streptomycin antibiotics until they reached 50-60% confluency. Transfection was carried out using X-tremeGene™ 9 DNA transfection reagent (Roche) according to the manufacturer's instructions. Proteins were expressed for 24 h prior to analyses. To label proteins with Halo-Tag fusion, protein expression was carried out in the presence of 1 μM 4 or 1 μM TMR Halo-Tag ligand to form covalent conjugate with the Halo-Tag domain. For a dual-probe labeling scheme, 1 μM 4 and 1 μM coumarin Halo-Tag ligand to simultaneously form covalent conjugate with the Halo-Tag domain.\n(§3) HEK293T cultures were seeded at 25% confluency 24 h prior to transfection in 12-well plate for time dependent fluorescence plate reader analysis or 35 mm glass bottom culture dishes (Poly-d-lysine coated, MatTek Corporation). Cells were grown in DMEM medium supplemented with 10% FBS and penicillin-streptomycin antibiotics until they reached 50-60% confluency. Transfection was performed using X-tremeGene™ 9 DNA transfection reagent (Roche). After 24 h of protein expression and co-translational labeling, medium was replaced with fresh DMEM to diffuse out unbound ligands. After 30 min, media was replaced by fresh DMEM medium containing DMSO vehicle or NaAsO2 (50 μM). […] At indicated time points, fluorescence reading was obtained using a Tecan M1000Pro fluorescence plate reader. Fluorescence intensity was recorded at Ex=530 nm/Em=600 nm for 3 and Ex=450 nm/Em=480 nm for ThT. […] Fluorescence of 3 was measured at Ex=530 nm/Em=600 nm."}, "SOD1(V31A)-Halo [2]": {"biological_target": "SOD1(V31A)-Halo (UniProt P00441+P0A3G2, A155T/A167V/A172T/A224E/C128F/C176G/D78G/E160K/E257K/H272N/K175M/K195N/L47V/L88M/N227D/S58T/T264A/V32A/Y273L/Y87F)", "sequence (P00441+P0A3G2 fused with the stated changes)": "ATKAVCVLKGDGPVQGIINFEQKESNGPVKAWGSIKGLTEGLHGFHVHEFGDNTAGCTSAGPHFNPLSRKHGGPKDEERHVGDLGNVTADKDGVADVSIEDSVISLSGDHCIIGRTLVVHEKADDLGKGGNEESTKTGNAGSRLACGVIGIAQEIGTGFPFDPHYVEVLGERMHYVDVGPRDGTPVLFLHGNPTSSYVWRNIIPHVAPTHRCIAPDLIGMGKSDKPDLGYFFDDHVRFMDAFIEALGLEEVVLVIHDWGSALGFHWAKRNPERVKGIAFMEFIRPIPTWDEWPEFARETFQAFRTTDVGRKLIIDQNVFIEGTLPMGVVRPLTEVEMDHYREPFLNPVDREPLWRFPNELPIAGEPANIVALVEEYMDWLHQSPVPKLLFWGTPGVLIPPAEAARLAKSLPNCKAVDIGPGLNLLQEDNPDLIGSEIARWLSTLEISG", "assay": "AggTag imaging of NaAsO2-induced SOD1(V31A)-Halo aggregation in HEK293T cells", "parameters": "expressed in transfected cells; host or cells: HEK293T", "settings": "NaAsO2", "description": "as §1, §2, §3"}, "Htt-97Q-Halo": {"biological_target": "T1, Htt-97Q-Halo (UniProt P0A3G2+P42858, A155T/A167V/A172T/A224E/C128F/C176G/D78G/E160K/E257K/H272N/K175M/K195N/L47V/L88M/N227D/S58T/T264A/Y273L/Y87F)", "T1 construct": "using the Huntingtin exon 1 protein (Htt) with expansion of a polyglutamine tract within its N-terminal domain; expressed in transfected cells; host or cells: HEK293T", "T1 sequence (P42858+P0A3G2 fused with the stated changes)": "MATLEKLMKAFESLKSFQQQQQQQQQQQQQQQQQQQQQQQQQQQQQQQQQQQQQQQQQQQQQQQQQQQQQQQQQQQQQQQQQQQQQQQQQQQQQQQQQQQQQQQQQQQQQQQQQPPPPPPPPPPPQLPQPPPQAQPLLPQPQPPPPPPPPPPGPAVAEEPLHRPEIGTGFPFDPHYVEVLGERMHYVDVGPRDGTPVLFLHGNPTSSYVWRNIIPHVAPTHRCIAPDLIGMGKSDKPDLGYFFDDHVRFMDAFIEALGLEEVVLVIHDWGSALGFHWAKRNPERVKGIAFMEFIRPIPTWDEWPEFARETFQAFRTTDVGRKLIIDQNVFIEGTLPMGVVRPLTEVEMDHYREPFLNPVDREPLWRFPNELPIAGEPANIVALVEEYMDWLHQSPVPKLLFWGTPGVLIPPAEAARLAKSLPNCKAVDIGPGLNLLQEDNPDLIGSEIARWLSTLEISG", "assay": "AggTag imaging of Htt-Halo aggregation in HEK293T cells", "description": "(a) The dual-probe live cell imaging experiment. Halo-tag fusion proteins were labeled in the presence of both the non-fluorogenic coumarin ligand (1 μM) and 4 (1 µM). The newly synthesized Htt-Halo proteins were equally labeled with either the coumarin ligand or 4. The coumarin ligand is fluorescent both before and after aggregation of Htt-Halo. By contrast, signal of 4 exclusively arises from Htt-Halo aggregates. (b) Dual probes labeling confirms expression of proteins. The Htt Q0-Halo and Htt Q97-Halo proteins were transiently transfected and expressed in HEK293T cells for 24 h, in the presence of 1 μM coumarin Halo-Tag ligand and 1 μM of 4. In cells expressing Htt Q97-Halo proteins, punctate structures in the coumarin channel coincided with the turn-on fluorescence of 4. […] (c) The Htt Q97 protein, without a Halo-Tag, was transiently transfected and expressed in HEK293T cells for 24 h, in the presence of 1 μM of 4. No turn-on fluorescence of 4 was found. Red: fluorescence from the SOD1(V31A)-Halo-4 conjugate. Blue: coumarin Halo-Tag ligand in (a) or nucleus stained by Hoechst 33342 in (b). Scale bar: 10 μm. (d) Fluorescent intensity of cell lysates from samples as represented in FIG. 4d. Error bars: standard error (n=3).\nas §2\nTo wash off unbound Halo ligands, the cells were washed extensively by replacing media with fresh DMEM and incubating for 30 min at 37° C. For confocal fluorescence imaging with either 4-labeled Halo fusion, TMR-labeled Halo fusion, EGFP fusion, or mCherry fusion proteins, DMEM media was replaced with FluoroBrite™ DMEM media (ThermoFisher) supplemented with 10% FBS, and Hoechst 33342 (0.1 μg/mL). For confocal fluorescence imaging with either dual-probe labeled Halo fusion with 4 and coumarin ligand, DMEM media was replaced with FluoroBrite™ DMEM media (ThermoFisher) supplemented with 10% FBS. The samples were incubated for 30 min prior to imaging. Media was replaced with fresh FluoroBrite™ DMEM media (ThermoFisher) supplemented with 10% FBS prior to imaging. Confocal images were obtained using Olympus FluoView™ FV1000 confocal microscope. The EGFP fluorescence was visualized using blue argon (488 nm) laser. Nuclear staining and coumarin fluorescence was visualized using violet laser (405 nm). Fluorescence of TMR and 4 were visualized using green HeNe laser (543 nm)."}},
  "note": "“Also recorded” adds a separate entry of the source.",
  "data": [
    {"smiles": "CN(C)c1ccc(/C=C2N=C(/C=C/c3ccc(N(CCO)CCO)cc3)N(CC(=O)N[C@H]3CC[C@H](C(=O)NCCOCCOCCCCCCCl)CC3)C\\2=O)cc1", "note": "[Compound 4, (1r,4r)-4-(2-((Z)-2-((E)-4-(bis(2-hydroxyethyl)amino)styryl)-4-(4-(dimethylamino)benzylidene)-5-oxo-4,5-dihydro-1H-imidazol-1-yl)acetamido)-N-(2-(2-((6-chlorohexyl)oxy)ethoxy)ethyl)cyclohexanecarboxamide]", "values": [
      {"measurement": "fluorescence in cells co-expressing Halo-Tag and SOD1-V31A-GFP", "setting": "SOD1(V31A)-Halo [1]; NaAsO2 stressor 50 μM, 18 h, 37° C.", "result": "turn-on fluorescence was not observed"},
      {"measurement": "fluorescence in cells expressing Halo-Tag alone under stress", "setting": "SOD1(V31A)-Halo [1]; NaAsO2 stressor, Halo-4 conjugate", "result": "remained dark in stressed cells; also recorded: fluorescence was not observed"},
      {"measurement": "fluorescence of SOD1(V31A)-Halo labeled cells before and after stress", "setting": "SOD1(V31A)-Halo [2]", "result": "dark before stress but exhibited both diffuse and punctate fluorescent structures in stressed cells"},
      {"measurement": "turn-on fluorescence in cells expressing Htt-97Q-Halo", "setting": "Htt-97Q-Halo", "result": "observed as puncta without any background diffuse fluorescence"},
      {"measurement": "origin of Htt-97Q-Halo fluorescence after fractionation of lysate", "setting": "Htt-97Q-Halo; cell lysate", "result": "primarily originated from the insoluble fraction"}
    ]}
  ]
}
